US20230263822A1, “MODULATION OF FACTOR 11 EXPRESSION” (Ionis Pharmaceuticals, Inc., priority 2008, published 2023)
Strand notation (5' to 3'): a small letter for the sugar, then the base; units joined by * are phosphorothioate-linked, units joined directly phosphodiester-linked; [ ] holds rarer units or linkages, { } end groups; capitals alone tell only the bases. e = 2'-O-(2-methoxyethyl) (MOE); [5mC] = 5-methylcytosine; d = 2'-deoxy (DNA)

Assays:
[1] = tested on: human Factor 11 mRNA; experiment: Antisense inhibition of human Factor 11 in HepG2 cells, electroporation, 8,000 nM (Example 30); assay type: cell-based; conditions: electroporation, 8,000 nM antisense oligonucleotide
Procedure, shortened: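 HepG2 cells electroporated with 8,000 nM 5-10-5, 5-8-5 or 6-8-6 MOE gapmers (phosphorothioate, 5-methylcytidine), ~24 h. Factor 11 mRNA quantified by qRT-PCR, normalised to RIBOGREEN total RNA. Reported as percent inhibition versus untreated cells.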

[2] = Tolerability in Sprague-Dawley rats: kidney function, urine protein/creatinine (Example 35); conditions: for Urine protein/creatinine ratio: Sprague Dawley rats; for BUN / Creatinine: Sprague-Dawley rats, plasma
Method: A control group of four Sprague Dawley rats was injected subcutaneously with PBS twice per week for 6 weeks. Body weight measurements were taken before and throughout the treatment period. Urine samples were taken before the start of treatment. Three days after the last dose, urine samples were taken and the rats were sacrificed. Organ weights were measured and blood was collected for further analysis.
To evaluate the effect of kidney function, plasma concentrations of blood urea nitrogen (BUN) and creatinine were measured using an automated clinical chemistry analyzer (Hitachi Olympus AU400e, Melville, N.Y.).

[3] = design: species or system Sprague-Dawley rats; conditions: rat, in vivo
Method: Three days after the last dose, the rats were sacrificed and livers and kidneys were collected for analysis.
The concentration of the full-length oligonucleotide as well as the total oligonucleotide concentration (including the degraded form) was measured. The method used is a modification of previously published methods (Leeds et al., 1996; Geary et al., 1999) which consist of a phenol-chloroform (liquid-liquid) extraction followed by a solid phase extraction. An internal standard (ISIS 355868, a 27-mer 2′-O-methoxyethyl modified phosphorothioate oligonucleotide, […], designated herein as SEQ ID NO: 270) was added prior to extraction. […] The results are presented in Tables 77 and 78, expressed as μg/g liver or kidney tissue. Half-lives were then calculated using WinNonlin software ([…]).

[4] = tested on: blood coagulation; experiment: PT and aPTT assay in cynomolgus monkeys (Example 46); assay type: in vivo; conditions: for PT ratio (INR) / aPTT ratio relative to PBS group: platelet poor plasma, relative to PBS group; for aPTT: cynomolgus monkeys, 25 mg/kg
Method: (§1) Groups, each consisting of two male and two female monkeys, were injected subcutaneously with 25 mg/kg of ISIS 416850, ISIS 449709, ISIS 445522, ISIS 449710, ISIS 449707, ISIS 449711, ISIS 449708, 416858, and ISIS 445531. Antisense oligonucleotide was administered to the monkeys at 25 mg/kg three times per week for week 1 and 25 mg/kg twice per week for weeks 2 to 8. A control group, consisting of two male and two female monkeys was injected subcutaneously with PBS according to the same dosing regimen. Body weights were taken 14 days and 7 days before the start of treatment and were then measured weekly throughout the treatment period. Blood samples were collected 14 days and 5 days before the start of treatment and subsequently several times during the dosing regimen for PT and aPTT measurements, and measurement of various hematologic factors. On day 55, the monkeys were euthanized by exsanguination while under deep anesthesia, and organs harvested for further analysis.
PT and aPTT were measured using platelet poor plasma (PPP) from […] treated with ISIS oligonucleotides. PT and aPTT values are provided in Tables 148 and 149 and are reported as International Normalized Ratio (INR) values. INR values for PT and aPTT were determined by dividing the PT or aPTT value for each experimental group by the PT or aPTT for the PBS treated group. This ratio was then raised to the power of the International Sensitivity Index (ISI) of the tissue factor used. […] Therefore, antisense reduction of Factor 11 with these ISIS oligonucleotides is useful for inhibiting the formation of a thrombus or clot in response to an abnormal vessel wall, but not in response to tissue injury.

[5] = Liver function, ALT, AST, bilirubin in cynomolgus monkeys (Example 46); assay type: in vivo; conditions: plasma
Method: as §1
Plasma concentrations of alanine transaminase (ALT) and aspartate transaminase (AST) were measured and the results are presented in Tables 152 and 153 expressed in IU/L. Plasma levels of bilirubin were also measured and results are presented in Table 154 expressed in mg/dL. As observed in Tables 152-154, there were no significant increases in any of the liver metabolic markers after antisense oligonucleotide treatment.

[6] = After treatment, 50 mg/kg s.c. twice per week for 6 weeks
[7] = Before antisense oligonucleotide treatment
[8] = 50 mg/kg s.c. twice per week for 6 weeks

412206 (antisense e[5mC]*e[5mC]*eG*eT*eG*d[5mC]*dA*dT*d[5mC]*dT*dT*dT*d[5mC]*dT*dT*eG*eG*e[5mC]*eA*eT) [compound 412206]
Percent inhibition of human Factor 11 mRNA levels [1]: 91%

412223 (antisense ACAGTTTCTGGCAGGCCTCG; 5-10-5 MOE gapmer, further chemistry not given here) [compound 412223]
Percent inhibition of human Factor 11 mRNA levels [1]: 62%

412224 (antisense GCATTGGTGCACAGTTTCTG; 5-10-5 MOE gapmer, further chemistry not given here) [compound 412224]
Percent inhibition of human Factor 11 mRNA levels [1]: 84%

412225 (antisense GCAGCGGACGGCATTGGTGC; 5-10-5 MOE gapmer, further chemistry not given here) [compound 412225]
Percent inhibition of human Factor 11 mRNA levels [1]: 86%

413482 (antisense GGACGGCATTGGTGCACAGT; 5-10-5 MOE gapmer, further chemistry not given here) [compound 413482]
Percent inhibition of human Factor 11 mRNA levels [1]: 88%

416826 (antisense ATGCCCTTCATGTCTAGGTC; 5-10-5 gapmer, further chemistry not given here) [compound 416826]
Urine protein/creatinine ratio [2, 6]: 11.4 | Urine protein/creatinine ratio [2, 7]: 1.0 | Half-life in the liver and kidney [3]: 13 days

416838 (antisense GCAACCGGGATGATGAGTGC; 5-10-5 gapmer, further chemistry not given here) [compound 416838]
Urine protein/creatinine ratio [2, 6]: 3.7 | Urine protein/creatinine ratio [2, 7]: 1.2 | Half-life in the liver and kidney [3]: 13 days

416856 (antisense GGCATTGGTGCACAGTTTCT; 5-10-5 gapmer, further chemistry not given here) [compound 416856]
Percent inhibition of human Factor 11 mRNA levels [1]: 84%

445522 (antisense eG*e[5mC]*eA*e[5mC]*eA*dG*dT*dT*dT*d[5mC]*dT*dG*dG*e[5mC]*eA*eG*eG*e[5mC]) [compound 445522]
Percent inhibition of human Factor 11 mRNA levels [1]: 91%

445531 (antisense eG*eG*e[5mC]*eA*eT*dT*dG*dG*dT*dG*d[5mC]*dA*d[5mC]*eA*eG*eT*eT*eT) [compound 445531]
Percent inhibition of human Factor 11 mRNA levels [1]: 90%

ISIS 416838: MOE gapmer, nucleobases 1018 to 1042 of SEQ ID NO: 1 (Table 6) (antisense GCAACCGGGATGATGAGTGC; MOE gapmer, wing and gap sizes not given here)
BUN [2, 8]: 4 mg/dL | Creatinine [2, 8]: 5 mg/dL

ISIS 416850: MOE gapmer, nucleobases 1275 to 1318 of SEQ ID NO: 1 (Table 8) (antisense TGCACAGTTTCTGGCAGGCC; MOE gapmer, wing and gap sizes not given here)
PT ratio (INR) ([4]; Day 10): 0.99 | aPTT ratio relative to PBS group ([4]; Day 10): 0.98 | PT ratio (INR) ([4]; Day 17): 1.00 | aPTT ratio relative to PBS group ([4]; Day 17): 1.01 | PT ratio (INR) ([4]; Day 24): 0.97 | aPTT ratio relative to PBS group ([4]; Day 24): 1.05 | PT ratio (INR) ([4]; Day 31): 1.00 | aPTT ratio relative to PBS group ([4]; Day 31): 1.22 | PT ratio (INR) ([4]; Day 38): 1.01 | aPTT ratio relative to PBS group ([4]; Day 38): 1.25 | PT ratio (INR) ([4]; Day 45): 1.00 | aPTT ratio relative to PBS group ([4]; Day 45): 1.34 | PT ratio (INR) ([4]; Day 52): 1.02 | aPTT ratio relative to PBS group ([4]; Day 52): 1.32 | PT ratio (INR) ([4]; Day 55): 1.07 | aPTT ratio relative to PBS group ([4]; Day 55): 1.45 | PT ratio (INR) ([4]; Day −5): 1.00 | aPTT ratio relative to PBS group ([4]; Day −5): 0.90 | PT ratio (INR) ([4]; Day −14): 1.02 | aPTT ratio relative to PBS group ([4]; Day −14): 0.99 | aPTT [4]: significantly prolonged | BUN [2, 8]: 5 mg/dL | Creatinine [2, 8]: 7 mg/dL | ALT ([5]; Day 31): 45 IU/L | AST ([5]; Day 31): 46 IU/L | Bilirubin ([5]; Day 31): 0.26 mg/dL | ALT ([5]; Day 55): 55 IU/L | AST ([5]; Day 55): 57 IU/L | Bilirubin ([5]; Day 55): 0.17 mg/dL | ALT ([5]; Day −5): 42 IU/L | AST ([5]; Day −5): 45 IU/L | Bilirubin ([5]; Day −5): 0.22 mg/dL | ALT ([5]; Day −14): 48 IU/L | AST ([5]; Day −14): 62 IU/L | Bilirubin ([5]; Day −14): 0.26 mg/dL

ISIS 416858: MOE gapmer, nucleobases 1275 to 1318 of SEQ ID NO: 1 (Table 8) (antisense ACGGCATTGGTGCACAGTTT; MOE gapmer, wing and gap sizes not given here)
PT ratio (INR) ([4]; Day 10): 0.96 | aPTT ratio relative to PBS group ([4]; Day 10): 1.07 | PT ratio (INR) ([4]; Day 17): 0.98 | aPTT ratio relative to PBS group ([4]; Day 17): 1.13 | PT ratio (INR) ([4]; Day 24): 0.95 | aPTT ratio relative to PBS group ([4]; Day 24): 1.21 | PT ratio (INR) ([4]; Day 31): 1.00 | aPTT ratio relative to PBS group ([4]; Day 31): 1.32 | PT ratio (INR) ([4]; Day 38): 0.97 | aPTT ratio relative to PBS group ([4]; Day 38): 1.41 | PT ratio (INR) ([4]; Day 45): 1.00 | aPTT ratio relative to PBS group ([4]; Day 45): 1.49 | PT ratio (INR) ([4]; Day 52): 0.99 | aPTT ratio relative to PBS group ([4]; Day 52): 1.53 | PT ratio (INR) ([4]; Day 55): 1.01 | aPTT ratio relative to PBS group ([4]; Day 55): 1.61 | PT ratio (INR) ([4]; Day −5): 0.96 | aPTT ratio relative to PBS group ([4]; Day −5): 0.96 | PT ratio (INR) ([4]; Day −14): 1.01 | aPTT ratio relative to PBS group ([4]; Day −14): 1.03 | aPTT [4]: significantly prolonged | BUN [2, 8]: 8 mg/dL | Creatinine [2, 8]: 4 mg/dL | ALT ([5]; Day 31): 46 IU/L | AST ([5]; Day 31): 60 IU/L | Bilirubin ([5]; Day 31): 0.16 mg/dL | ALT ([5]; Day 55): 58 IU/L | AST ([5]; Day 55): 69 IU/L | Bilirubin ([5]; Day 55): 0.16 mg/dL | ALT ([5]; Day −5): 66 IU/L | AST ([5]; Day −5): 100 IU/L | Bilirubin ([5]; Day −5): 0.23 mg/dL | ALT ([5]; Day −14): 43 IU/L | AST ([5]; Day −14): 64 IU/L | Bilirubin ([5]; Day −14): 0.25 mg/dL

ISIS 416864: MOE gapmer, nucleobases 1275 to 1318 of SEQ ID NO: 1 (Table 8) (antisense GGCAGCGGACGGCATTGGTG; MOE gapmer, wing and gap sizes not given here)
BUN [2, 8]: 5 mg/dL | Creatinine [2, 8]: 6 mg/dL

ISIS 417002: MOE gapmer, nucleobases 1275 to 1318 of SEQ ID NO: 1 (Table 8) (antisense GGTGCACAGTTTCTGGCAGG; MOE gapmer, wing and gap sizes not given here)
BUN [2, 8]: 11 mg/dL | Creatinine [2, 8]: 1 mg/dL

ISIS 449711: 3-8-3, 4-8-4, 2-10-2, 3-10-3 or 4-10-4 MOE microwalk gapmer (Table 46) (antisense eA*e[5mC]*dA*dG*dT*dT*dT*d[5mC]*dT*dG*dG*d[5mC]*eA*eG)
PT ratio (INR) ([4]; Day 10): 0.94 | aPTT ratio relative to PBS group ([4]; Day 10): 0.92 | PT ratio (INR) ([4]; Day 17): 0.95 | aPTT ratio relative to PBS group ([4]; Day 17): 0.90 | PT ratio (INR) ([4]; Day 24): 0.94 | aPTT ratio relative to PBS group ([4]; Day 24): 0.92 | PT ratio (INR) ([4]; Day 31): 0.98 | aPTT ratio relative to PBS group ([4]; Day 31): 0.89 | PT ratio (INR) ([4]; Day 38): 1.02 | aPTT ratio relative to PBS group ([4]; Day 38): 0.93 | PT ratio (INR) ([4]; Day 45): 1.01 | aPTT ratio relative to PBS group ([4]; Day 45): 0.94 | PT ratio (INR) ([4]; Day 52): 1.00 | aPTT ratio relative to PBS group ([4]; Day 52): 0.92 | PT ratio (INR) ([4]; Day 55): 1.07 | aPTT ratio relative to PBS group ([4]; Day 55): 0.96 | PT ratio (INR) ([4]; Day −5): 0.95 | aPTT ratio relative to PBS group ([4]; Day −5): 0.96 | PT ratio (INR) ([4]; Day −14): 1.00 | aPTT ratio relative to PBS group ([4]; Day −14): 0.94 | ALT ([5]; Day 31): 48 IU/L | AST ([5]; Day 31): 47 IU/L | Bilirubin ([5]; Day 31): 0.13 mg/dL | ALT ([5]; Day 55): 54 IU/L | AST ([5]; Day 55): 47 IU/L | Bilirubin ([5]; Day 55): 0.13 mg/dL | ALT ([5]; Day −5): 137 IU/L | AST ([5]; Day −5): 78 IU/L | Bilirubin ([5]; Day −5): 0.16 mg/dL | ALT ([5]; Day −14): 49 IU/L | AST ([5]; Day −14): 58 IU/L | Bilirubin ([5]; Day −14): 0.23 mg/dL
